Experimental data: US12679839B2, “Cyclin-dependent kinase 7 (CDK7) non-covalent inhibitors” (JANSSEN PHARMACEUTICA NV, priority 2020, dated 2026)

The molecules below were run on RNA polymerase II Serine 5 phosphorylation (Rpb1 CTD), downstream substrate of CDK7 (assay: Imaging-based cellular RNA PolII Ser5 phosphorylation assay in A549 cells). Conditions: Homo sapiens, A549, 3 h, challenged with compound for 3 hours, read-out: pRNA polII Ser5 (A549) pIC50 (converted).
Format: cell-based, human
Text: Dosing curves were fitted using the following equation to obtain IC50: Y=Bottom+(Top−Bottom)/(1+10^((log IC50−X)*Hill slope)) where X=log10 of the compound concentration; top and bottom can be defined by PC and NC respectively. Imaging-Based Cellular RNA PolII Ser5 Phosphorylation Assay
To evaluate inhibition of CDK7 kinase activity, a 384-well automated imaging assay was used. This assay detects Serine 5 phosphorylation on a unique heptapeptide sequence in the C-terminal domain of Rpb1 subunit of RNA polymerase II, the downstream substrate of CDK7. This heptapeptide sequence is repeated up to 52 times in the CTD of Rpb1.
A549 adenocarcinoma human alveolar basal epithelial cells (ATCC, CCL-185), rabbit Phospho-Rpb1 CTD (Ser5) antibody (D9N51 (Cell Signaling Technology)), DMEM (Sigma), Fetal Bovine Serum (Biowest), L-glutamine (Sigma), Penicillin/Streptomycin (Life Technologies), Sodium Pyruvate (Sigma), Hepes (Sigma), poly-D-lysine coated μclear 384 black plates (Greiner), formaldehyde (PolySciences), D-PBS (Sigma), Methanol (Sigma), Alexa Fluor 488 goat anti rabbit IgG secondary antibody (Life Technologies), HCS CellMask™ Deep Red stain (Life Technologies), Hoechst 33258 (Invitrogen).
RNA Polymerase II Serine 5 phosphorylation was detected using a specific rabbit Phospho-Rpb1 CTD (Ser5) antibody. A549 adenocarcinoma human alveolar basal epithelial cells were seeded in 20 μl medium (DMEM supplemented with 1% Fetal Bovine Serum (heat inactivated 30′ 56° C.), 2 mM L-glutamine, 50 U/ml penicillin 50 μg/ml streptomycin, 1 mM sodium pyruvate and 50 mM hepes) at 1000 cells/well and cultured in poly-D-lysine coated μclear 384 black plates for 20 hours at 37° C. and 5% CO2.
After incubation cells were challenged with compound for 3 hours at 37° C. and 5% CO2. DMSO was used as high control and as low control 10 μM of LDC4297 reference compound was used. 40 nl of test compounds and controls were spotted in cell plates using Echo Liquid Handler (Echo 550, Labcyte). Incubation was followed by 20 minutes fixation with 20 μl 10% formaldehyde at room temperature. Medium/formaldehyde solution was removed, plates were washed 3 times with 30 μl D-PBS (w/o Ca^2+ and Ma^2+) and permeabilization was done by adding 20 μl ice cold methanol for 20 minutes. Cells were washed again 3 times with 30 μl D-PBS and 20 μl blocking buffer (25 ml fetal bovine serum in 500 ml D-PBS) was added for 1 hour.
After removing blocking buffer 20 μl 1/1000 primary antibody rabbit. Phospho-Rpb1 CTD (Ser5) antibody was added which binds to the phosphorylated Serine5 of the heptapeptide sequences in the CTD of Rpb1. Primary antibody was removed, and plates were washed 3 times with 30 μl D-PBS followed by addition of 20 μl 1/2000 Alexa Fluor 488 goat anti rabbit IgG secondary antibody for final detection of Phospho-Rpb1 CTD (Ser5) together with 1/5000 HCS CellMask™ Deep Red stain for membrane staining and 1/5000 Hoechst 33258 for nucleus staining. Last, plates were washed 2 times with 30 μl D-PBS and wells were filled with 40 μL D-PBS, plates were sealed (Thermowell sealing tape) and stored at 4° C. until reading. Plates were read with Opera Phenix (Perkin Elmer) with 10× air objective. Data were calculated and analyzed in Phaedra.
IC50 values were calculated using the following formula:
Average value of all HC's and all LC's are used for normalizations. % Effect=100−(sample−LC)/(HC−LC)×100% Control=(sample/HC)×100
A best-fit curve is fitted by a minimum sum of squares method to the plot of % Control vs. compound concentration. From this an IC50 value can be obtained. An estimate of the slope of the plot in terms of the Hill coefficient is also obtained.

| IC50 [nM] | Compound |
| --- | --- |
| > 10000 | C[C@@H]1Cc2cnc(NC3CCOCC3)nc2CN1C(=O)[C@H]1CCN(C2COC2)C[C@@H]1c1ccccc1 (single isomer, unassigned) [Compound 159] |
| 813 | C[C@@H]1CN(C)CC[C@H]1C(=O)N1Cc2nc(NCc3ccn(C)n3)ncc2C[C@H]1C (relative stereo) [Compound 147] |
| ~33.1 | C[C@@H]1Cc2cnc(Nc3ccnc(C4CC4)c3)nc2CN1C(=O)[C@H]1CCN(C)C[C@@H]1c1ccccc1 [Compound 76] |
| ~20.4 | Cc1cccc([C@H]2CN(C)CC[C@@H]2C(=O)N2Cc3nc(Nc4ccnc(C)c4)ncc3C[C@H]2C)c1 [Compound 135] |
| ~83.2 | Cc1cccc([C@@H]2CN(C)CC[C@H]2C(=O)N2Cc3cc(Nc4cnn(C)c4)ncc3C[C@@H]2C)c1 (single isomer, unassigned) [Compound 179] |
| 776 | C[C@H]1Cc2cnc(NC3CCOCC3)nc2[C@H](C)N1C(=O)[C@H]1CCN(C)C[C@@H]1c1ccccc1 [Compound 196] |
| 603 | [2H]C([2H])([2H])c1cccc([C@@H]2CN(C)CC[C@H]2C(=O)N2Cc3nc(NCc4ccn(C)n4)ncc3C[C@H]2C)c1 (relative stereo) [Compound 99] |
| 178 | CC(C)N1CC[C@H](C(=O)N2Cc3nc(NC4CCOCC4)ncc3C[C@H]2C)[C@@H](c2ccccc2)C1 (single isomer, unassigned) [Compound 157] |
| > 10000 | CC(C)Oc1cccc([C@@H]2CN(C)CC[C@H]2C(=O)N2Cc3nc(NCc4ccn(C)n4)ncc3C[C@H]2C)c1 (relative stereo) [Compound 138a] |
| 3720 | [2H]C([2H])([2H])N1CC[C@@H](C(=O)N2Cc3cc(NCc4ccn(C)n4)ncc3C[C@@H]2C)[C@H](c2ccccc2)C1 (single isomer, unassigned) [Compound 178] |
| < 2.45 | C[C@@H]1Cc2cnc(NCc3ccn(C)n3)nc2CN1C(=O)[C@H]1CCN(C)C[C@@H]1c1cccc(C2CC2)c1 (relative stereo) [Compound 121] |
| 490 | C[C@@H]1Cc2cnc(N[C@@H]3COc4ccccc43)nc2CN1C(=O)[C@H]1CCN(C)C[C@@H]1c1ccccc1 (relative stereo) [Compound 18] |
| 18.6 | C[C@@H]1Cc2cnc(Nc3cnn(CC4CC4)c3)nc2CN1C(=O)[C@H]1CCN(C)C[C@@H]1c1ccccc1 [Compound 80] |
| ~30.9 | C[C@@H]1Cc2cnc(Nc3cnn(CC(F)F)c3)nc2CN1C(=O)[C@H]1CCN(C)C[C@@H]1c1ccccc1 [Compound 85] |
| 182 | CC(C)Oc1cccc([C@H]2CN(C)CC[C@@H]2C(=O)N2Cc3nc(NCc4ccn(C)n4)ncc3C[C@H]2C)c1 (relative stereo) [Compound 138b] |
| 234 | CN1CC[C@H](C(=O)N2Cc3nc(NCc4ccn(C)n4)ncc3[C@@H]3C[C@@H]32)[C@@H](c2ccccc2)C1 [Compound 198] |
| 1350 | Cc1nn(C)c(C)c1Nc1ncc2c(n1)CN(C(=O)[C@H]1CCN(C)C[C@@H]1c1ccccc1)[C@H](C)C2 [Compound 81] |
| 41.7 | CCO[C@H]1CC[C@H](Nc2ncc3c(n2)CN(C(=O)[C@H]2CCN(C)C[C@@H]2c2ccccc2)[C@H](C)C3)CC1 [Compound 19] |
| 661 | Cc1c(Nc2ncc3c(n2)CN(C(=O)[C@H]2CCN(C)C[C@@H]2c2ccccc2)[C@H](C)C3)cnn1C [Compound 87] |
| 240 | CO[C@H]1CC[C@H](Nc2ncc3c(n2)CN(C(=O)[C@H]2CCN(C)C[C@@H]2c2ccccc2)C(C)(C)C3)CC1 (single isomer, unassigned) [Compound 190] |
| 1120 | C[C@@H]1Cc2cnc(Nc3cn(C)nc3C(F)(F)F)nc2CN1C(=O)[C@H]1CCN(C)C[C@@H]1c1ccccc1 [Compound 84] |
| 28.8 | C[C@@H]1Cc2cnc(Nc3cnn(C4CCCC4)c3)nc2CN1C(=O)[C@H]1CCN(C)C[C@@H]1c1ccccc1 [Compound 88] |
| 447 | Cc1nn(C)cc1Nc1ncc2c(n1)CN(C(=O)[C@H]1CCN(C)C[C@@H]1c1ccccc1)[C@H](C)C2 [Compound 86] |
| 40.7 | C[C@@H]1Cc2cnc(N[C@H]3CCOC4(CCCC4)C3)nc2CN1C(=O)[C@H]1CCN(C)C[C@@H]1c1ccccc1 (relative stereo) [Compound 16] |
| ~26.3 | [2H]C([2H])([2H])c1cccc([C@H]2CN(C)CC[C@@H]2C(=O)N2Cc3nc(NCc4ccn(C)n4)ncc3C[C@H]2C)c1 (relative stereo) [Compound 100] |
| 2400 | C[C@@H]1Cc2cnc(NCc3ccn(C)n3)nc2CN1C(=O)[C@@H]1CCN(C)C[C@H]1c1cccc(C(F)F)c1 (relative stereo) [Compound 123] |
| 77.6 | CCN1CC[C@H](C(=O)N2Cc3nc(NC4CCOCC4)ncc3C[C@H]2C)[C@@H](c2ccccc2)C1 (single isomer, unassigned) [Compound 158] |
| ~44.7 | C[C@@H]1Cc2cnc(NCc3ccn(C)n3)nc2CN1C(=O)[C@H]1CCN(C)C[C@@H]1c1cccc(C(F)F)c1 (relative stereo) [Compound 124] |
| 363 | C[C@@H]1Cc2cnc(N[C@H]3COc4ccccc43)nc2CN1C(=O)[C@H]1CCN(C)C[C@@H]1c1ccccc1 (relative stereo) [Compound 17] |

Same assay, conditions: challenged with compound for 3 hours

| pRNA polII Ser5 (A549) pIC50 | Compound |
| --- | --- |
| ~7.6 | [2H]C([2H])([2H])c1cccc([C@@H]2CN(C)CC[C@H]2C(=O)N2Cc3nc(Nc4cnn(C)c4)ncc3C[C@H]2C)c1 (relative stereo) [Compound 98] |
| 6.23 | [2H]C([2H])([2H])c1cccc([C@@H]2CN(C)CC[C@H]2C(=O)N2Cc3nc(Nc4cnn(C)c4)ncc3C[C@H]2C)c1 (relative stereo) [Compound 97] |
